Like-named read-outs stand apart in the source and are kept apart here.
Molecular target: GABARAPL2 (Homo sapiens, UniProt P60520)
Details: GABARAPL2:ligand molar ratio 1:2

Chain of GABARAPL2 (P60520 whole entry): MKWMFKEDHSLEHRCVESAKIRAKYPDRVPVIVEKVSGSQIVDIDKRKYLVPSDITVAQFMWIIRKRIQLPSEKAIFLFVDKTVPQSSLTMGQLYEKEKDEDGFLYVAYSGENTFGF

## O=c1cc(-c2ccccc2)c2c(O)cc(O)cc2o1 [compound 2]
Residue A19
  CSP: 0.010 ppm
Residue A23
  CSP: 0.008 ppm
Residue A58
  CSP: 0.00237 ppm
Residue A108
  CSP: 0.00221 ppm
Residue C15
  CSP: 0.005 ppm
Residue D45
  CSP: 0.004 ppm
Residue D54
  CSP: 0.006 ppm
Residue D81
  CSP: 0.00283 ppm
Residue D100
  CSP: 0.00367 ppm
Residue D102
  CSP: 0.009 ppm
Residue E12
  CSP: 0.00212 ppm
Residue E17
  CSP: 0.006 ppm
Residue E34
  CSP: 0.010 ppm
Residue E73
  CSP: 0.00212 ppm
Residue E96
  CSP: 0.004 ppm
Residue E112
  CSP: 0.002 ppm
Residue F5, estimated
  CSP: 0.005 ppm
Residue F60
  CSP: 0.005 ppm
Residue F77
  CSP: 0.00281 ppm
Residue F104
  CSP: 0.016 ppm
Residue F115
  CSP: 0.009 ppm
Residue G38
  CSP: 0.012 ppm
Residue G103
  CSP: 0.005 ppm
Residue G111
  CSP: 0.008 ppm
Residue H9
  CSP: 0.016 ppm
Residue I21
  CSP: 0.005 ppm
Residue I32
  CSP: 0.005 ppm
Residue I41
  CSP: 0.007 ppm
Residue I44
  CSP: 0.002 ppm
Residue I55
  CSP: 0.00171 ppm
Residue I63
  CSP: 0.003 ppm
Residue I64
  CSP: 0.006 ppm
Residue K2
  CSP: 0.005 ppm
Residue K20
  CSP: 0.009 ppm
Residue K24
  CSP: 0.005 ppm
Residue K35
  CSP: 0.007 ppm
Residue K46, estimated
  CSP: 0.005 ppm
Residue K48
  CSP: 0.007 ppm
Residue K66
  CSP: 0.00316 ppm
Residue K74
  CSP: 0.00148 ppm
Residue K82, estimated
  CSP: 0.005 ppm
Residue K99
  CSP: 0.00444 ppm
Residue L11
  CSP: 0.00212 ppm
Residue L50
  CSP: 0.031 ppm
Residue L70
  CSP: 0.00283 ppm
Residue L78
  CSP: 0.0017 ppm
Residue L94
  CSP: 0.007 ppm
Residue L105
  CSP: 0.00636 ppm
Residue M1
  CSP: 0.014 ppm
Residue M4, estimated
  CSP: 0.005 ppm
Residue M61
  CSP: 0.00474 ppm
Residue M91
  CSP: 0.005 ppm
Residue P26, estimated
  CSP: 0.005 ppm
Residue P30, estimated
  CSP: 0.010 ppm
Residue P52, estimated
  CSP: 0.005 ppm
Residue P71, estimated
  CSP: 0.005 ppm
Residue P85, estimated
  CSP: 0.005 ppm
Residue Q40
  CSP: 0.0017 ppm
Residue Q59
  CSP: 0.002 ppm
Residue R14
  CSP: 0.0095 ppm
Residue R28
  CSP: 0.00851 ppm
Residue R47, estimated
  CSP: 0.005 ppm
Residue R65
  CSP: 0.0019 ppm
Residue R67
  CSP: 0.004 ppm
Residue S10
  CSP: 0.013 ppm
Residue S18
  CSP: 0.002 ppm
Residue S37
  CSP: 0.0065 ppm
Residue S39
  CSP: 0.00356 ppm
Residue S53
  CSP: 0.005 ppm
Residue S88
  CSP: 0.00122 ppm
Residue S110
  CSP: 0.00122 ppm
Residue T83
  CSP: 0.00251 ppm
Residue T114
  CSP: 0.00122 ppm
Residue V29
  CSP: 0.0057 ppm
Residue V31
  CSP: 0.025 ppm
Residue V36
  CSP: 0.00316 ppm
Residue V42
  CSP: 0.006 ppm
Residue V51
  CSP: 0.009 ppm
Residue V80
  CSP: 0.008 ppm
Residue V84
  CSP: 0.00228 ppm
Residue V107
  CSP: 0.006 ppm
Residue W3
  CSP: 0.006 ppm
Residue Y49
  CSP: 0.033 ppm
Residue Y95
  CSP: 0.0022 ppm
Residue Y106
  CSP: 0.007 ppm
Residue Y109
  CSP: 0.007 ppm
